Results as given in Sander's compilation of Henry's law constants (doi:10.1021/es00169a013).

assay: Henry solubility constant Hcp at 298.15 K (mol/(m3 Pa)); conditions: reference: Dunnivant et al. (1988)

| Compound | Henry solubility constant Hcp |
| --- | --- |
| Clc1ccc(-c2ccccc2)cc1Cl [3,4-dichlorobiphenyl] | 0.048 |
| Clc1ccc(-c2ccc(Cl)cc2)cc1 [4,4'-dichlorobiphenyl] | 0.05 |
| Clc1ccc(Cl)c(-c2ccccc2)c1 [2,5-dichlorobiphenyl] | 0.025 |
| Clc1cc(Cl)c(-c2cc(Cl)c(Cl)cc2Cl)cc1Cl [2,2',4,4',5,5'-hexachlorobiphenyl] | 0.075 |
| Clc1ccc(Cl)c(-c2cc(Cl)ccc2Cl)c1 [2,2',5,5'-tetrachlorobiphenyl] | 0.029 |
| Clc1cccc(-c2cccc(Cl)c2)c1 [3,3'-dichlorobiphenyl] | 0.042 |
| Clc1ccc(-c2ccc(Cl)c(Cl)c2)cc1Cl [3,3',4,4'-tetrachlorobiphenyl] | 0.1 |
| Clc1cc(Cl)c(-c2ccccc2)c(Cl)c1 [2,4,6-trichlorobiphenyl] | 0.015 |
| Clc1ccc(Cl)c(-c2cc(Cl)c(Cl)cc2Cl)c1 [2,2',4,5,5'-pentachlorobiphenyl] | 0.039 |
| Clc1cc(Cl)c(-c2c(Cl)cc(Cl)cc2Cl)c(Cl)c1 [2,2',4,4',6,6'-hexachlorobiphenyl] | 0.013 |
| Clc1cccc(Cl)c1-c1c(Cl)cccc1Cl [2,2',6,6'-tetrachlorobiphenyl] | 0.018 |
| Clc1ccccc1-c1ccccc1Cl [2,2'-dichlorobiphenyl] | 0.029 |
| Clc1cccc(-c2cccc(Cl)c2Cl)c1Cl [2,2',3,3'-tetrachlorobiphenyl] | 0.049 |
| Clc1cccc(-c2cc(Cl)ccc2Cl)c1 [2,3',5-trichlorobiphenyl] | 0.03 |
